The IC50 is the concentration that gives 50% inhibition.

In this assay the target is T1, recombinant glucosyltransferase domain of C. difficile Toxin B/TcdB (Clostridioides difficile, UniProt P18177).
T1 construct: 6-His (C); purchased R&D Systems 6246-GT
T1 sequence (P18177 1-543): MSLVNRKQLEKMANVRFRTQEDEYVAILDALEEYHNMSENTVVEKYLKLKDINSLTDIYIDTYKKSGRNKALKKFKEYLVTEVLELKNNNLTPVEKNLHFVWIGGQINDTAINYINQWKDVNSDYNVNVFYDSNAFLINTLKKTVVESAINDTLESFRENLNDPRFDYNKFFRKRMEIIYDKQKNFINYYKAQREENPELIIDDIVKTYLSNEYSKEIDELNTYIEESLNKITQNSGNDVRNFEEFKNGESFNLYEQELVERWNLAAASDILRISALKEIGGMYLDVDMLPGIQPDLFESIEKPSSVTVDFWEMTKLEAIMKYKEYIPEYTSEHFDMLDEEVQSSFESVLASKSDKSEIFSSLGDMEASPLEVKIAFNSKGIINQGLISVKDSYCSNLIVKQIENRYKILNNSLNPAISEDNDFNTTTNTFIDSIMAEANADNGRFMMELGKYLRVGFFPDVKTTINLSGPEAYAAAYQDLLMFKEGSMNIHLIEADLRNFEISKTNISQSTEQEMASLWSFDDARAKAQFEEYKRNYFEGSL
As to the kind of experiment: biochemical.
Regarding `CCc1ccc(NC(=O)c2ccc(CN3C(=O)c4ccc(Cl)cc4NC(=O)[C@H]3Cc3cccnc3)cc2)nc1` [Example 5k, (R)-4-((8-chloro-2,5-dioxo-3-(pyridin-3-ylmethyl)-2,3-dihydro-1H-benzo[e][1,4]diazepin-4(5H)-yl)methyl)-N-(5-ethylpyridin-2-yl)benzamide], the IC50 is below 100 nM.

In the case of `O=C(O)c1ccc(CN2C(=O)c3ccc(Cl)cc3NC(=O)[C@H]2Cc2ccc(Cl)c(Cl)c2)cc1` [Example 1d], the half-maximal inhibitory concentration (IC50) lay within 1000 to 10000 nM.

As to `C[C@@H]1C(=O)Nc2cc(Cl)ccc2C(=O)N1Cc1ccc(C(=O)Nc2ccccn2)cc1` [Example 4z, (R)-4-((8-chloro-3-methyl-2,5-dioxo-2,3-dihydro-1H-benzo[e][1,4]diazepin-4(5H)-yl)methyl)-N-(pyridin-2-yl)benzamide], the 50% inhibitory concentration (IC50) was below 100 nM.

Take `O=C(O)c1ccc(CN2C(=O)c3ccc(Cl)cc3NC(=O)[C@H]2Cc2ccccn2)cc1-c1cccc(Cl)c1` [Example 8j, (R)-3′-chloro-5-((8-chloro-2,5-dioxo-3-(pyridin-2-ylmethyl)-2,3-dihydro-1H-benzo[e][1,4]diazepin-4(5H)-yl)methyl)-[1,1′-biphenyl]-2-carboxylic acid]: the IC50 fell in the range of 100 to 999 nM.

Take `O=C(O)c1ccc(CN2C(=O)c3ccc(F)cc3NC(=O)[C@H]2Cc2ccc(Cl)c(Cl)c2)cc1` [Example 2g]: the IC50 was in the range of 1000 to 10000 nM.

For `Cn1ccnc1C(=O)c1ccc(CN2C(=O)c3ccc(Cl)cc3NC(=O)[C@H]2Cc2ccccn2)cc1` [Example 31c], the 50% inhibitory concentration (IC50) lay within 100 to 999 nM.

As for `Cc1ccc(NC(=O)c2ccc(CN3C(=O)c4ccc(Cl)cc4NC(=O)[C@@H]3Cc3cscn3)cc2)nc1` [Example 35a, (S)-4-((8-Chloro-2,5-dioxo-3-(thiazol-4-ylmethyl)-2,3-dihydro-1H-benzo[e][1,4]diazepin-4(5H)-yl)methyl)-N-(5-methylpyridin-2-yl)benzamide], the 50% inhibitory concentration (IC50) is 100 to 999 nM.

Turning to `COc1cnc(NC(=O)[C@H]2CC[C@H](CN3C(=O)c4ccc(Cl)cc4NC(=O)[C@H]3Cc3ccccn3)CC2)cn1` [Example 4ce, (1R,4r)-4-(((R)-8-chloro-2,5-dioxo-3-(pyridin-2-ylmethyl)-2,3-dihydro-1H-benzo[e][1,4]diazepin-4(5H)-yl)methyl)-N-(5-methoxypyrazin-2-yl)cyclohexanecarboxamide], the concentration for half-maximal inhibition (IC50) fell in the range of 100 to 999 nM.

As for `O=C(O)c1ccc(CN2C(=O)c3ccc(Cl)cc3NC(=O)[C@H]2Cc2ccccn2)s1` [Example 1h], the 50% inhibitory concentration (IC50) fell in the range of 100 to 999 nM.

Consider `O=C(O)c1ccc(CN2C(=O)c3ccc(Cl)cc3NC(=O)[C@H]2Cc2ccccn2)cc1Cl` [Example 7a, (R)-2-Chloro-4-((8-chloro-2,5-dioxo-3-(pyridin-2-ylmethyl)-2,3-dihydro-1H-benzo[e][1,4]diazepin-4(5H)-yl)methyl)benzoic Acid], for which the IC50 was 100 to 999 nM.

As to `O=C(O)c1ccc(CN2C(=O)c3ccc(Cl)cc3NC(=O)[C@H]2Cc2ccc(O)cc2)cc1` [Example 2d], the IC50 lay in the range of 1000 to 10000 nM.

`Cc1nnc(NC(=O)c2ccc(CN3C(=O)c4ccc(Cl)cc4NC(=O)[C@H]3Cc3ccccn3)cc2)s1` [Example 4bn, (R)-4-((8-chloro-2,5-dioxo-3-(pyridin-2-ylmethyl)-2,3-dihydro-1H-benzo[e][1,4]diazepin-4(5H)-yl)methyl)-N-(5-methyl-1,3,4-thiadiazol-2-yl)benzamide]: the half-maximal inhibitory concentration (IC50) lay within 1000 to 10000 nM.

As to `O=C(Nc1ccccn1)c1ccc(CN2C(=O)c3ccc(C(F)(F)F)cc3NC(=O)[C@H]2Cc2ccc(Cl)c(Cl)c2)cc1` [Example 35f], the 50% inhibitory concentration (IC50) lay within 1000 to 10000 nM.

As for `N#Cc1ccc(NC(=O)c2ccc(CN3C(=O)c4ccc(Cl)cc4NC(=O)[C@H]3Cc3ccccn3)cc2Cl)nc1` [Example 5au, (R)-2-chloro-4-((8-chloro-2,5-dioxo-3-(pyridin-2-ylmethyl)-2,3-dihydro-1H-benzo[e][1,4]diazepin-4(5H)-yl)methyl)-N-(5-cyanopyridin-2-yl)benzamide], the concentration for half-maximal inhibition (IC50) is below 100 nM.

Take `Cn1cnc(C(=O)Nc2ccc(CN3C(=O)c4ccc(Cl)cc4NC(=O)[C@H]3Cc3ccccn3)cc2)c1` [Example 27k]: the IC50 was below 100 nM.

Regarding `CC1(C)CN(C(=O)c2ccc(CN3C(=O)c4ccc(Cl)cc4NC(=O)[C@H]3Cc3ccccn3)cc2Cl)c2ncccc21` [Example 4as, (R)-8-chloro-4-(3-chloro-4-(3,3-dimethyl-2,3-dihydro-1H-pyrrolo[2,3-b]pyridine-1-carbonyl)benzyl)-3-(pyridin-2-ylmethyl)-3,4-dihydro-1H-benzo[e][1,4]diazepine-2,5-dione], the IC50 is below 100 nM.

Turning to `COc1ccc2c(c1)NC(=O)[C@@H](Cc1ccc(Cl)c(Cl)c1)N(Cc1ccc(C(=O)Nc3ccccn3)cc1)C2=O` [Example 4l, (R)-4-((3-(3,4-dichlorobenzyl)-8-methoxy-2,5-dioxo-2,3-dihydro-1H-benzo[e][1,4]diazepin-4(5H)-yl)methyl)-N-(pyridin-2-yl)benzamide], the IC50 was below 100 nM.

As for `Cc1ccc2c(c1)NC(=O)[C@@H](Cc1ccc(Cl)c(Cl)c1)N(Cc1ccc(C(=O)O)cc1)C2=O` [Example 1e], the half-maximal inhibitory concentration (IC50) is 10000 to 35000 nM.

Take `O=C(O)c1ccc(CN2C(=O)c3ccc(Cl)cc3NC(=O)[C@@H]2Cc2ccc(O)cc2)cc1` [Example 2c]: the half-maximal inhibitory concentration (IC50) was 10000 to 35000 nM.

Consider `COCC(=O)Nc1ccc(CN2C(=O)c3ccc(Cl)cc3NC(=O)[C@H]2Cc2ccccn2)cc1` [Example 30b], for which the IC50 was in the range of 10000 to 35000 nM.

With `Cc1ccc(NC(=O)c2ccc(CN3C(=O)c4ccc(NC(=O)C(C)C)cc4NC(=O)[C@H]3C)cc2)nc1` [Example 18b, (R)-4-((8-isobutyramido-3-methyl-2,5-dioxo-2,3-dihydro-1H-benzo[e][1,4]diazepin-4(5H)-yl)methyl)-N-(5-methylpyridin-2-yl)benzamide], the IC50 was in the range of 10000 to 35000 nM.

With `O=C1CN(Cc2ccc(C(=O)O)cc2)C(=O)c2ccc(Cl)cc2N1` [Example 3o], the half-inhibitory concentration (IC50) lay within 10000 to 35000 nM.

`O=C(c1ccc(CN2C(=O)c3ccc(Cl)cc3NC(=O)[C@H]2Cc2ccccn2)cc1)c1cccn2ncnc12` [Example 31f]: the concentration for half-maximal inhibition (IC50) is below 100 nM.

As for `CCc1ccc(NC(=O)c2ccc(CN3C(=O)c4ccc(Cl)cc4NC(=O)[C@H]3Cc3ccccn3)cc2)nc1` [Example 4ap, (R)-4-((8-chloro-2,5-dioxo-3-(pyridin-2-ylmethyl)-2,3-dihydro-1H-benzo[e][1,4]diazepin-4(5H)-yl)methyl)-N-(5-ethylpyridin-2-yl)benzamide], the concentration for half-maximal inhibition (IC50) was below 100 nM.

With `Cc1nsc(NC(=O)c2ccc(CN3C(=O)c4ccc(Cl)cc4NC(=O)[C@H]3Cc3ccccn3)cc2)n1` [Example 4bk, (R)-4-((8-chloro-2,5-dioxo-3-(pyridin-2-ylmethyl)-2,3-dihydro-1H-benzo[e][1,4]diazepin-4(5H)-yl)methyl)-N-(3-methyl-1,2,4-thiadiazol-5-yl)benzamide], the half-inhibitory concentration (IC50) was 10000 to 35000 nM.

With `O=C(Nc1ccccn1)c1ccc(S(=O)(=O)N2Cc3ccc(Cl)cc3NC(=O)[C@H]2Cc2ccccn2)cc1` [Example 19b, (R)-4-((8-chloro-2-oxo-3-(pyridin-2-ylmethyl)-2,3-dihydro-1H-benzo[e][1,4]diazepin-4(5H)-yl)sulfonyl)-N-(pyridin-2-yl)benzamide], the IC50 is below 100 nM.

With `Cc1nnc(NC(=O)c2ccc(CN3C(=O)c4ccc(Cl)cc4NC(=O)[C@H]3Cc3ccccn3)cc2)o1` [Example 4bo, (R)-4-((8-chloro-2,5-dioxo-3-(pyridin-2-ylmethyl)-2,3-dihydro-1H-benzo[e][1,4]diazepin-4(5H)-yl)methyl)-N-(5-methyl-1,3,4-oxadiazol-2-yl)benzamide], the half-maximal inhibitory concentration (IC50) was below 100 nM.

Turning to `Cc1ccc(NC(=O)c2ccc(CN3C(=O)c4ccc(Cl)cc4NC(=O)[C@H]3CCN3CCOCC3)cc2)nc1` [Example 10a, (R)-4-((8-Chloro-3-(2-morpholinoethyl)-2,5-dioxo-2,3-dihydro-1H-benzo[e][1,4]diazepin-4(5H)-yl)methyl)-N-(5-methylpyridin-2-yl)benzamide], the concentration for half-maximal inhibition (IC50) was in the range of 1000 to 10000 nM.

In the case of `COc1ccc(S(=O)(=O)NC(=O)c2ccc(CN3C(=O)c4ccc(Cl)cc4NC(=O)[C@H]3Cc3cccnc3)cc2)cc1` [Example 15d, (R)-4-((8-chloro-2,5-dioxo-3-(pyridin-3-ylmethyl)-2,3-dihydro-1H-benzo[e][1,4]diazepin-4(5H)-yl)methyl)-N-((4-methoxyphenyl)sulfonyl)benzamide], the concentration for half-maximal inhibition (IC50) lay in the range of 1000 to 10000 nM.

In the case of `CN1CCC(CC(=O)Nc2cc(CN3C(=O)c4ccc(Cl)cc4NC(=O)[C@H]3Cc3ccccn3)ccc2C(=O)O)CC1` [Example 22l], the concentration for half-maximal inhibition (IC50) was in the range of 100 to 999 nM.

On to `Cc1cnc(NC(=O)c2ccc(S(=O)(=O)N3Cc4ccc(Cl)cc4NC(=O)[C@H]3Cc3ccccn3)cc2)nc1` [Example 19g, (R)-4-((8-chloro-2-oxo-3-(pyridin-2-ylmethyl)-2,3-dihydro-1H-benzo[e][1,4]diazepin-4(5H)-yl)sulfonyl)-N-(5-methylpyrimidin-2-yl)benzamide], for which the IC50 was below 100 nM.

Turning to `C[C@@H]1C(=O)Nc2cc(Cl)ccc2C(=O)N1Cc1ccc(C(=O)Nc2ncc3ccccc3n2)cc1` [Example 5n, (R)-4-((8-chloro-3-methyl-2,5-dioxo-2,3-dihydro-1H-benzo[e][1,4]diazepin-4(5H)-yl)methyl)-N-(quinazolin-2-yl)benzamide], the IC50 was 100 to 999 nM.

Consider `Cc1ccc(C(=O)Nc2ccc(CN3C(=O)c4ccc(Cl)cc4NC(=O)[C@H]3Cc3ccccn3)cc2)nc1` [Example 26f], for which the concentration for half-maximal inhibition (IC50) is below 100 nM.

On to `Cc1cnc2c(c1)CCN2C(=O)c1ccc(CN2C(=O)c3ccc(Cl)cc3NC(=O)[C@H]2Cc2ccccn2)cc1` [Example 4af, (R)-8-chloro-4-(4-(5-methyl-2,3-dihydro-1H-pyrrolo[2,3-b]pyridine-1-carbonyl)benzyl)-3-(pyridin-2-ylmethyl)-3,4-dihydro-1H-benzo[e][1,4]diazepine-2,5-dione], for which the IC50 was below 100 nM.

Consider `O=C(Nc1ccccn1)c1ccc(CN2C(=O)c3ccc(Cl)cc3NC(=O)[C@H]2Cc2cccc(F)c2)cc1` [Example 35j], for which the concentration for half-maximal inhibition (IC50) was below 100 nM.

As for `O=C(Nc1ccccn1)c1ccc(CN2C(=O)c3ccc(Cl)cc3NC(=O)[C@H]2Cc2cccc(Cl)c2)cc1` [Example 4aa, (R)-4-((8-chloro-3-(3-chlorobenzyl)-2,5-dioxo-2,3-dihydro-1H-benzo[e][1,4]diazepin-4(5H)-yl)methyl)-N-(pyridin-2-yl)benzamide], the half-inhibitory concentration (IC50) was below 100 nM.
